Measurements published in publication PMC5783350, “Development of an activity-based probe for acyl-protein thioesterases” (PLoS ONE, 2018).
“And” between values parts separate entries of the source, which are not always exact repeats. Equal entries are not always repeated.

Key:
HsAPT1 [1] = target: T1, HsAPT1 (Homo sapiens, UniProt O75608); experiment: 4-NPO esterase activity assay, recombinant HsAPT1; format: biochemical; parameters: made in house; host or cells: E. coli BL21(DE3)pLysS
From the text: (§1) We recently performed a phenotypic screen to identify small-molecule modulators of host cell invasion by the apicomplexan parasite T. gondii. The small-molecules in this directed screen were expected to covalently modify protein targets in an activity-dependent manner. Unexpectedly, this screen not only identified inhibitors of parasite invasion, but also compounds that enhanced host cell invasion. Enhancer compounds were all structurally similar substituted chloroisocoumarins. Using an alkynylated version of the lead enhancer compound (JCP174), we identified the phenotypically relevant target of the enhancer phenotype as the previously uncharacterized thioesterase TgPPT1 [12]. TgPPT1 is the orthologue of the human depalmitoylase HsAPT1, sharing 33% identity by BLAST analysis. […] Therefore, we screened a focused library of substituted chloroisocoumarins to identify compounds that inhibited HsAPT1 and HsAPT2 activity. […] To measure the enzymatic activity of recombinant HsAPT1 and HsAPT2, we used the previously reported substrate, 4-nitrophenyl octanoate (4-NPO), in which enzymatic cleavage of the ester linkage can be measured by UV/Vis spectroscopy upon release of 4-nitrophenolate (Fig 1A). Using this activity readout, we performed our screen with recombinant HsAPT1 and HsAPT2 using a focused library of 100 substituted chloroisocoumarins (Fig 1B). Compounds that produced >50% inhibition of either HsAPT1 or HsAPT2 activity relative to the DMSO control at 10 μM were then re-screened across a range of concentrations to determine in vitro IC50 values (Fig 1C and 1D). Compounds with IC50 values <10 μM for both HsAPT1 and HsAPT2 were scored as hits. According to these criteria, our screen achieved a hit rate of 7% (Table 1). […] We next tested the potency of JCP174 for both enzymes with increasing preincubation times from 30 minutes to 6 hours. The potency of JCP174 increased with longer pre-incubation times for both targets, indicating an irreversible covalent mechanism (S1 Table). […] (S1 Table).
(§2) The 4-nitropenhyl octanoate (4-NPO) activity assay was modified from Dekker et al.. Briefly, 50 μL 20 mM HEPES, 150 mM NaCl, 0.01% v/v Triton-X 100, pH 7.4 buffer with the indicated concentrations of inhibitor or buffer control was added to 96-well plates. To each well, 30 μL of recombinantly expressed enzyme diluted to 1 μM in 20 mM HEPES, 150 mM NaCl, 0.01% v/v Triton-X 100, pH 7.4 buffer was added. The inhibitor and enzyme reaction was incubated at 37°C for 30 minutes before 20 μL of 4-NPO (3.0 mM) was added to the reaction in 20 mM HEPES, 150 mM NaCl, 0.25% v/v Triton-X 100, pH 7.4 buffer. The reaction progress was measured using a Cytation 3 plate reader at 401 nm at 1-minute intervals for 40 minutes.

HsAPT2 [2] = target: T2, HsAPT2 (Homo sapiens, UniProt O95372); experiment: 4-NPO esterase activity assay, recombinant HsAPT2; format: biochemical; parameters: made in house; host or cells: E. coli BL21(DE3)pLysS
T2 sequence (O95372 whole entry): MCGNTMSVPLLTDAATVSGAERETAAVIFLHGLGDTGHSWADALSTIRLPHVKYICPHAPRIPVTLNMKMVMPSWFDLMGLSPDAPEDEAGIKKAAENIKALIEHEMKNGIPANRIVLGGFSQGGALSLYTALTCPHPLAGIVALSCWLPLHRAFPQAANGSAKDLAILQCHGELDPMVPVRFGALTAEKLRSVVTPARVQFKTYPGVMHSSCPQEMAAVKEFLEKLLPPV
From the text: as §1, §2

TgPPT1 [3] = experiment: In-gel labeling of recombinant TgPPT1 with JCP174-BT; format: binding, Toxoplasma gondii; details: 1 μM probe
TgPPT1 [4] = format: cell-based, Toxoplasma gondii
[5] = test system: HsAPT1 and HsAPT2 in intact U-2 OS cells; experiment: Intact mammalian cell labeling, in-gel fluorescence; format: cell-based, human
HsAPT1 [6] = target: T1, HsAPT1; experiment: FP-rhodamine ABP competition labeling, U-2 OS (HsAPT1 band); format: cell-based; details: intact U-2 OS cells pretreated 1 hour, washed, lysates labeled with FP-rho
HsAPT2 [7] = target: T2, HsAPT2; experiment: FP-rhodamine ABP competition labeling, U-2 OS (HsAPT2 band); format: cell-based; details: intact U-2 OS cells pretreated 1 hour, washed, lysates labeled with FP-rho
[8] = rHsAPT1, 4-NPO substrate, 30 minutes preincubation at 37°C
[9] = rHsAPT2, 4-NPO substrate, 30 minutes preincubation at 37°C

T1 sequence (O75608 whole entry): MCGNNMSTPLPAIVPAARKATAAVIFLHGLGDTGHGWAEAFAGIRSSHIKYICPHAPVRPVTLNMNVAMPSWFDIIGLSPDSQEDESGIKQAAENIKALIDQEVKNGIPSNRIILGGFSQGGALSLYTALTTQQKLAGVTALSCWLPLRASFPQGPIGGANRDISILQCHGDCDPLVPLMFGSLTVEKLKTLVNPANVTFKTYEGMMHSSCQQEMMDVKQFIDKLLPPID

SMILES	IC50 (HsAPT1 [1]; [8])	IC50 (HsAPT2 [2]; [9])	other results
O=c1oc(Cl)c(Cl)c2ccccc12 [DCI, dichloroisocoumarin, reference compound]	1700 nM	2700 nM	
CCOc1oc(=O)c2cc(NC(=S)Nc3ccccc3)ccc2c1Cl [JCP154]	1800 nM	2900 nM	
COc1ccc(-c2ccc3n2[B-](F)(F)[N+]2=C(C)C(CCC(=O)NCCCn4cc(CCOc5oc(=O)c6cc(N)ccc6c5Cl)nn4)=C(C)C2=C3)cc1 [JCP174-BODIPY TMR]	3000 nM	1800 nM	Covalent labeling of active site mutant TgPPT1 S128A (TgPPT1 [3]; recombinant TgPPT1 S128A): did not label the active site mutant; Covalent labeling of wild-type TgPPT1 (TgPPT1 [3]; recombinant TgPPT1 WT): covalently modified; Labeling of TgPPT1 in intact T. gondii tachyzoites (TgPPT1 [4]): strong labeling of TgPPT1 in intact cells; Labeling of HsAPT1 and HsAPT2 in intact U-2 OS cells [5]: labeled APT1 and APT2 in intact cells
C#CCCOc1oc(=O)c2cc(N)ccc2c1Cl [JCP174-alk, 3-(3-Butynoxy)-4-chloro-7-amino-isocoumarin]	925 nM and 930 nM	498 nM and 500 nM	
O=C(O)c1cccc(NC(=S)Nc2ccc3c(Cl)c(OCCBr)oc(=O)c3c2)c1 [JCP342]	1500 nM	5200 nM	
O=c1oc(OCCBr)c(Cl)c2ccc(NC(=S)Nc3ccccc3)cc12 [JCP343]	1400 nM	9100 nM	
O=C(O)c1ccc(NC(=S)Nc2ccc3c(Cl)c(OCCBr)oc(=O)c3c2)cc1 [JCP345]	7100 nM	8500 nM	
CC(CBr)Oc1oc(=O)c2cc(N)ccc2c1Cl (stereo not shown) [JCP362]	1200 nM	950 nM	
CCCCCCCCCC[C@@H]1C(=O)O[C@H]1CCc1ccc(OC)c(OC)c1 [Palmostatin B, palmostatin B, reference compound]	310 nM	320 nM	Competition for FP-rho labeling of HsAPT1 (HsAPT1 [6]): competed for the same two species; Competition for FP-rho labeling of HsAPT2 (HsAPT2 [7]): competed for the same two species; IC50 (HsAPT1 [1]; preincubation time 2 hr): 2500 nM; IC50 (HsAPT1 [1]; preincubation time 6 hr): 6800 nM; IC50 (HsAPT2 [2]; preincubation time 2 hr): 700 nM; IC50 (HsAPT2 [2]; preincubation time 6 hr): 1600 nM
